Experimental findings from patent US10689394B2, “Thieno[2,3-b]pyridine derivative, quinoline derivative, and use thereof” (The University of Tokyo, priority 2016, dated 2020) are described below.

Structures are written as SMILES.

T1 sequence (P00441 whole entry G94A, species assumed): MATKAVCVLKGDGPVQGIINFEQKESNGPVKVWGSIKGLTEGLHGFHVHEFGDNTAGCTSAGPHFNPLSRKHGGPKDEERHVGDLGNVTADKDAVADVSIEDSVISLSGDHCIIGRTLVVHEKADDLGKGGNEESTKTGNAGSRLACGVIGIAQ
T1 sequence (Q9BUN8 whole entry, species assumed, stated change not applied): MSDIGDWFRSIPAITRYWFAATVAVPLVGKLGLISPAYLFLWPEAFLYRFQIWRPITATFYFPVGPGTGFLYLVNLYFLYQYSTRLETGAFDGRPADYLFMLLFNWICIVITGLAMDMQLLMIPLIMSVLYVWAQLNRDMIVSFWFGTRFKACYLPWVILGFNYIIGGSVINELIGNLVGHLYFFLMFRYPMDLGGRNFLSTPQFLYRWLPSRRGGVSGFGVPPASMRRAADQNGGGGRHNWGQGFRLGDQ

This test has as its target T1, binding between ALS-related mutant SOD1 (Flag-SOD1 G93A) and Derlin-1 (Derlin-1-HA) (Homo sapiens, UniProt P00441+Q9BUN8, G94A).
T1 construct: expressed in transfected cells; host or cells: HEK293A
Nature of the test: Cell-based co-immunoprecipitation assay of mutant SOD1 (G93A)-Derlin-1 binding. The note with it: assay concentration 20 μM; HEK293A cells overexpressing Flag-SOD1 G93A and Derlin-1-HA. Details: key to Activity value (score): a compound exhibiting no inhibitory activity is set at 0; a compound exhibiting inhibitory activity is set at 1; a compound exhibiting significant inhibitory activity is set at 2; a compound having higher inhibitory activity than the compound of Example 1 is set at 3. On the procedure:
As cells, human embryonic kidney-derived, Human Embryonic Kidney 293A (HEK293A) cells were used. The cells were cultured in High Glucose Dulbecco's modified Eagle's medium (DMEM: 4.5 mg/ml glucose, Sigma) supplemented with complement-inactivated 10% fetal bovine serum (FBS, Vitromex) and 100 units/mL Penicillin G (Meiji), which was placed in an incubator set at conditions of 37° C. and 5% CO2.
Transfection into the HEK293A cells was carried out using PEI-Max (Polyscience) at a ratio of 3 μL of PEI-Max to 1 μg of plasmid. DMEM was mixed with PEI-Max, and the mixture was then left at rest for 5 minutes. Thereafter, the reaction mixture was added to the plasmid DNA dissolved in DMEM, and the thus obtained mixture was further left at rest for 15 minutes. After seeding, the culture was carried out for 12 to 24 hours, and the resultant was then added to a culture medium of cells, in which the medium had been exchanged with DMEM supplemented only with 10% FBS.
pcDNA3.0-Derlin-1-HA, pcDNA3.0-Flag-SOD1 G93A, and 123 types of other mutants.
In the lysis of HEK293A cells for use in a co-immunoprecipitation experiment, an IP lysis buffer (20 mM Tris-HCl (pH 7.5), 150 mM NaCl, 10 mM EDTA (pH 8.0), 1% Triton-X 100, 5 μg/mL leupeptin, and 1 mM phenylmethylsulfonyl fluoride) was used.
After the transfection on a 24-well plate, the cells were cultured for 12 hours or 24 hours, and the obtained cell culture was exchanged with 200 μL of medium. Thereafter, 1% DMSO or various types of compounds having each different concentration were added into the culture. Thirty-six hours or twenty-four hours later, the cells were incubated in the IP lysis buffer (300 μL/well) at 4° C. for 25 minutes, so that the cells were lysed. The cell lysate was centrifuged at 4° C. at 15000 rpm for 10 minutes, and a supernatant was then recovered. To this supernatant, Anti-Flag M2 affinity gel was added in a liquid amount of 20 μL, and they were allowed to react with each other by subjecting the obtained mixture to inversion mixing at 4° C. for 25 minutes. After completion of the reaction, a supernatant was removed, and the residue was washed twice with High salt wash buffer (1% Triton X 100, 500 mM NaCl, 20 mM Tris-HCl (pH 7.5), and 5 mM EGTA), and was then washed once with Low salt wash buffer (150 mM NaCl, 20 mM Tris-HCl (pH 7.5), and 5 mM EGTA). Finally, 50 μL of a 2×SDS sample buffer was added to the resultant, and the obtained mixture was then boiled at 98° C. for 3 minutes to obtain an SDS-PAGE sample. Regarding the lysate, a 2×SDS sample buffer was added in an amount equal to the supernatant, and the obtained mixture was then boiled at 98° C. for 3 minutes to obtain an SDS-PAGE sample.
After completion of SDS-PAGE, a protein was transferred from the gel into a polyvinylidene difluoride membrane (PVDF) ([…], Pall), and was then blocked with TBS-T (150 mM NaCl, 50 mM Tris-HCl (pH 8.0), and 0.05% Tween 20) supplemented with 5% skimmed milk at room temperature for 2 hours or more. Thereafter, a primary antibody diluted with TBS-T supplemented with 5% bovine serum albumin and 0.1% NaN3 was allowed to bind to each molecule on the PVDF membrane at 4° C. for 12 hours or more. After completion of the reaction, a secondary antibody (HRP-linked 2nd antibody) diluted with TBS-T supplemented with 5% skimmed milk was allowed to bind to the primary antibody at room temperature for 1 hour. Thereafter, the resultant was washed with TBS-T for 15 minutes, 3 or more times, and detection was then carried out using an enhanced chemiluminescence (ECL) system.
With regard to the compounds of the present invention (Example Compound 1 to Example Compound 47), whether or not the present compound can inhibit the binding between ALS-related mutant SOD1 and Derlin-1 in a cell by being added into a cell culture solution was examined according to a co-immunoprecipitation experiment. […]
For the compound `CC(C)=CCN(C(=O)c1sc2nc(-c3ccncc3)ccc2c1N)c1ccc(C(C)(C)C)cc1` [Example 43, 3-amino-N-(4-tert-butylphenyl)-N-(3-methylbut-2-en-1-yl)-6-(4-pyridinyl)thieno[2,3-b]pyridine-2-carboxamide], the “Activity value (score)” value worked out at 1.

In the case of `CC1(C)CCN(C(=O)c2sc3nc(-c4ccncc4)ccc3c2N)c2ccccc21` [Example 44], the “Activity value (score)” value is listed as 1.

As to `COc1cccc(N(CC=C(C)C)C(=O)c2sc3nc(-c4ccncc4)ccc3c2N)c1` [Example 45, 3-amino-N-(3-methoxyphenyl)-N-prenyl-6-(4-pyridinyl)thieno[2,3-b]pyridine-2-carboxamide], the “Activity value (score)” value was 1.

As to `COc1ccc(N(CC=C(C)C)C(=O)c2sc3nc(-c4ccncc4)ccc3c2N)cc1` [Example 46, 3-amino-N-(4-methoxyphenyl)-N-prenyl-6-(4-pyridinyl)thieno[2,3-b]pyridine-2-carboxamide], the “Activity value (score)” value came to 2.

For the compound `C=C(C)CN(C(=O)c1sc2nc(-c3ccncc3)ccc2c1N)c1ccccc1` [Example 47, 3-amino-N-metallyl-N-phenyl-6-(4-pyridinyl)thieno[2,3-b]pyridine-2-carboxamide], the “Activity value (score)” value is given as 2.
